Laboratory results as given in patent US7179825B2, “Retinoic acid mimetic anilides” (Janssen Pharmaceutica N.V., priority 1997, dated 2007).

Tested on: Ovariectomized rats
Test: Vaginal keratinization test on ovariectomized rats (Example C.2)
Type: in vivo
Settings: Rattus norvegicus, po, estradiol undecylate induced keratinization, per os once daily on days 1-3, active dose = 50% of rats show complete suppression, read-out: LAD (lowest active dose)
From the text: The property to delay the metabolism of retinoic acid can be evidenced in various in vitro and in vivo experiments. A particular in vitro procedure is described in example C.1 and tests the inhibitory activity of the compounds of formula (I) on the metabolism of retinoic acid in human breast cancer cells. The compounds of the present invention were also effective in suppressing induced vaginal keratinization effects in ovariectomized rats as is described in example C.2.
“Vaginal Keratinization Test on Ovariectomized Rats”
Ovariectomized rats were injected subcutaneously with a sesame oil solution containing 100 μg of estradiol undecylate in a volume of 0.1 ml per 100 g body weight and control animals were injected with sesame oil. On day one, two and three, test animals were treated once daily with a per os dose of the test compound and control animals with the drug vehicle (PEG 200). One day after the last treatment, the animals were sacrificed and their vaginas were processed for histological evaluation according to the method described in J. Pharmacol. Exp. Ther. 261(2), 773–779 (1992). A dose at which 50% of the tested rats show complete suppression of the estradiol undecylate induced keratinization effects is defined as an active dose. Table 23 lists the lowest active dose (LAD in mg/kg) of the compounds of formula (I) which were tested.

| SMILES | minimal effective dose |
| --- | --- |
| CCC(CC)C(c1ccc(NC(=O)CN2CCN(C)CC2)cc1)n1cncn1 (racemic) [Compound 15, (±)-N-[4-[2-ethyl-1-(1H-1,2,4-triazol-1-yl)butyl]phenyl]-4-methyl-1-piperazineacetamide] | > 2.5 mg/kg |
| CCC(CC)C(c1ccc(NC(=O)C2CCNCC2)cc1)n1ccnc1.Cl (racemic) [Compound 57, (±)-N-[4-[2-ethyl-1-(1H-imidazol-1-yl)butyl]-phenyl]4-piperidinecarboxamide monohydrochloride] | > 5 mg/kg |
| CC(=O)Nc1ccc(C(C(C)C)n2ccnc2)cc1 (racemic) [Compound 521, (±)-N-[4-[1-(1H-imidazol-1-yl)-2-methylpropyl]phenyl]acetamide] | 10 mg/kg |
| CCC(CC)C(c1ccc(NC(=S)Nc2nc3ccccc3s2)cc1)n1ccnc1 (racemic) [Compound 705, (±)-N-(2-benzothiazolyl)-N′-[4-[1-(1H-imidazol-1-yl)-2-ethylbutyl]phenyl]-thiourea] | > 5 mg/kg |

Same assay, conditions: estradiol undecylate induced keratinization, per os once daily on days 1-3, active dose = 50% of rats show complete suppression

| SMILES | LAD (lowest active dose) |
| --- | --- |
| CC(C(c1ccc(NC(=O)CCN2CCN(C)CC2)cc1)n1ccnc1)N(C)C (mixture of isomers) [Compound 354] | >5.00 mg/kg |
| CCCCN(C)C(C)C(c1ccc(NC(C)=O)cc1)n1ccnc1 (mixture of isomers) [Compound 562] | 5.00 mg/kg |
| CCN(C)C(C)C(c1ccc(NC(C)=O)cc1)n1ccnc1 (mixture of isomers) [Compound 566] | 5.00 mg/kg |
| CCCN(C)C(C)C(c1ccc(NC(C)=O)cc1)n1ccnc1 (mixture of isomers) [Compound 570] | >5.00 mg/kg |
| CC(=O)Nc1ccc(C(C(C)N(Cc2ccccc2)Cc2ccccc2)n2ccnc2)cc1 (mixture of isomers) [Compound 572] | >5.00 mg/kg |
| CCC(CC)C(c1ccc(NC(=O)CN2CCCCC2)cc1)n1ccnc1 (racemic) [Compound 43] | 2.50 mg/kg |
| CCC(CC)C(c1ccc(NC(=O)CN2CCN(C)CC2)cc1)n1ccnc1 (racemic) [Compound 44] | 2.50 mg/kg |
| CCC(CC)C(c1ccc(NC(=O)C2CCN(C)CC2)cc1)n1ccnc1 (racemic) [Compound 59] | >2.50 mg/kg |
| CCC(CC)C(c1ccc(NC(=O)Cc2ccc(OC)c(Cl)c2)cc1)n1cncn1 (racemic) [Compound 74] | 2.50 mg/kg |
| CCC(CC)C(c1ccc(NC(=O)Cc2c(OC)cccc2OC)cc1)n1ccnc1 (racemic) [Compound 114] | 2.50 mg/kg |
| CC(C)C(c1ccc(NC(=O)c2cc3ccccc3[nH]2)cc1)n1ccnc1 (racemic) [Compound 178] | >10.00 mg/kg |
| CN(C)CC(c1ccc(NC(=O)Cc2ccc(Cl)cc2)cc1)n1ccnc1 (racemic) [Compound 375] | >5.00 mg/kg |
| COc1ccc(CC(=O)Nc2ccc(C(C(C)CO)n3ccnc3)cc2)cc1OC (racemic) [Compound 386, (±)-(A)-3,4-dimethoxy-N-[4-[1-(1H-imidazol-1-yl)-2-(hydroxymethyl)propyl]phenyl]benzeneacetamide] | >2.50 mg/kg |
| COc1ccc(CC(=O)Nc2ccc(C(C(C)CO)n3ccnc3)cc2)cc1OC (racemic) [Compound 394, (±)-(B)-3,4-dimethoxy-N-[4-[1-(1H-imidazol-1-yl)-2-(hydroxymethyl)propyl]phenyl]-benzeneacetamide] | >2.50 mg/kg |
| COCC(c1ccc(NC(=O)Cc2ccc(OC)c(OC)c2)cc1)n1ccnc1 (racemic) [Compound 397] | >2.50 mg/kg |
| CNC(C)C(c1ccc(NC(=O)Cc2ccc(OC)c(OC)c2)cc1)n1ccnc1 (racemic) [Compound 400, (±)-(A)-3,4-dimethoxy-N-[4-[1-(1H-imidazol-1-yl)-2-(methylamino)propyl]phenyl]benzeneacetamide] | >2.50 mg/kg |
| COc1ccc(CC(=O)Nc2ccc(C(C(C)O)n3ccnc3)cc2)cc1OC.O (racemic) [Compound 402, (±)-(B)-3,4-dimethoxy-N-[4-[2-hydroxy-1-(1H-imidazol-1-yl)propyl]phenyl]benzeneacetamide monohydrate] | >5.00 mg/kg |
| Cc1ccc(CC(=O)Nc2ccc(C(CN(C)C)n3ccnc3)cc2)cc1C (racemic) [Compound 433] | >2.50 mg/kg |
| COc1ccc(C(=O)Nc2ccc(C(CN(C)C)n3ccnc3)cc2)cc1OC (racemic) [Compound 434] | >2.50 mg/kg |
| CN(C)CC(c1ccc(NC(=O)N2CCN(C)CC2)cc1)n1ccnc1 (racemic) [Compound 436] | >5.00 mg/kg |
| CC(=O)Nc1ccc(C(C=CC(C)C)n2ccnc2)cc1 (racemic) [Compound 532] | >10.00 mg/kg |
| CC(=O)Nc1ccc(C(C(C)N(C)C)n2cncn2)cc1 (racemic) [Compound 631, (±)-(B)-N-[4-[2-(dimethylamino)-1-(1H-1,2,4-triazol-1-yl)propyl]phenyl]acetamide] | >2.50 mg/kg |
| CCCC(C)C(c1ccc(NC(=O)Cc2ccc(Cl)cc2)cc1)n1cncn1 (racemic) [Compound 638] | >2.50 mg/kg |

| SMILES | LAD (lowest active dose) |
| --- | --- |
| CCC(CC)C(c1ccc(NC(=S)Nc2nc3ccccc3s2)cc1)n1cncn1 (racemic) [Compound 706] | 5.00 mg/kg |
| O=C(Nc1ccc(C(c2cccc(C(F)(F)F)c2)n2ccnc2)cc1)Nc1ccccc1F (racemic) [Compound 714] | 2.50 mg/kg |
| COc1ccc(NC(=O)Nc2ccc(C(c3cccc(C(F)(F)F)c3)n3ccnc3)cc2)cc1 (racemic) [Compound 716] | >2.50 mg/kg |
| COc1ccc(NC(=O)Nc2ccc(C(CN(C)C)n3ccnc3)cc2)cc1OC (racemic) [Compound 721] | >2.50 mg/kg |
| CCCC(c1ccc(NC(=O)Cc2ccc(Cl)cc2)cc1)(C(CC)CC)n1ccnc1 (racemic) [Compound 766] | >2.50 mg/kg |
| CCC(CC)C(CC)(c1ccc(NC(=O)Cc2ccc(Cl)cc2)cc1)n1ccnc1 (racemic) [Compound 768] | >2.50 mg/kg |
| CCC(CC)C(c1ccc(NC(=O)C(O)c2ccc(Cl)cc2)cc1)n1cncn1 (single isomer, unassigned) [Compound 20] | 2.50 mg/kg |
| CCOc1ccc(CCC(=O)Nc2ccc(C(C(CC)CC)n3ccnc3)cc2)cc1 (single isomer, unassigned) [Compound 62] | >5.00 mg/kg |
| COc1ccc(CC(=O)Nc2ccc(C(C(C)N(C)C)n3cncn3)cc2)cc1OC (single isomer, unassigned) [Compound 278] | 2.50 mg/kg |
| COc1ccc(CC(=O)Nc2ccc(C(C(C)N(C)C)n3cncn3)cc2)cc1Cl (single isomer, unassigned) [Compound 279] | 2.50 mg/kg |
| Cc1ccc(CC(=O)Nc2ccc(C(C(C)N(C)C)n3cncn3)cc2)cc1C (single isomer, unassigned) [Compound 280] | >2.50 mg/kg |
| COc1ccc(CC(=O)Nc2ccc(C(C(C)N(C)C)n3cncn3)cc2)cc1C (single isomer, unassigned) [Compound 281] | >2.50 mg/kg |
| CC(C(c1ccc(NC(=O)Cc2ccc(Cl)cc2)cc1)n1cncn1)N(C)C (single isomer, unassigned) [Compound 283] | 2.50 mg/kg |
| CC(C(c1ccc(NC(=O)Cc2ccc(O)c(Cl)c2)cc1)n1cncn1)N(C)C (single isomer, unassigned) [Compound 284] | 2.50 mg/kg |
| CCOc1ccc(CC(=O)Nc2ccc(C(C(C)N(C)C)n3cncn3)cc2)cc1OCC (single isomer, unassigned) [Compound 285] | >2.50 mg/kg |
| COc1ccc(CC(=O)Nc2ccc(C(C(C)N(C)C)n3cncn3)cc2)cc1C (single isomer, unassigned) [Compound 286] | >2.50 mg/kg |
| COc1ccc(CC(=O)Nc2ccc(C(C(C)N(C)C)n3cncn3)cc2)cc1OC (single isomer, unassigned) [Compound 287] | >2.50 mg/kg |
| COc1cc(CC(=O)Nc2ccc(C(C(C)N(C)C)n3cncn3)cc2)ccc1C (single isomer, unassigned) [Compound 294] | >2.50 mg/kg |
| COc1cc(CC(=O)Nc2ccc(C(C(C)N(C)C)n3cncn3)cc2)ccc1C (single isomer, unassigned) [Compound 295] | >2.50 mg/kg |
| CCOc1ccc(CC(=O)Nc2ccc(C(C(C)N(C)C)n3ccnc3)cc2)cc1OCC (single isomer, unassigned) [Compound 300] | >2.50 mg/kg |
| COc1cc(CC(=O)Nc2ccc(C(C(C)N(C)C)n3ccnc3)cc2)cc(OC)c1OC (single isomer, unassigned) [Compound 302] | >2.50 mg/kg |
| COc1ccc(CC(=O)Nc2ccc(C(C(C)N(C)C)n3ccnc3)cc2)cc1Cl (single isomer, unassigned) [Compound 304] | >2.50 mg/kg |
| Cc1cc(CC(=O)Nc2ccc(C(C(C)N(C)C)n3ccnc3)cc2)cc(C)c1C (single isomer, unassigned) [Compound 308] | >2.50 mg/kg |
